Test results published in US10689399B2, “Substituted 3,4,5,6,8,10,14,14a-octahydro-2h-2,6-methanopyrido[1′,2′:4,5]pyrazino[2,1-b][1,3]oxazocines and methods for treating viral infections” (Gilead Sciences, Inc., priority 2012, dated 2020).
Where two headings read alike, the source gives them in different places. Each block holds one compound with its values, some of them ahead of it.

Tested on: HIV-IIIb
Experiment: Antiviral assay in MT4 cells
Format: cell-based
Conditions: Human immunodeficiency virus 1, IIIB, MT4, 120 h
Protocol: For the antiviral assay utilizing MT4 cells, 0.4 μL of 189X test concentration of 3-fold serially diluted compound in DMSO was added to 40 μL of cell growth medium (RPMI 1640, 10% FBS, 1% penicilline/Streptomycine, 1% L-Glutamine, 1% HEPES) in each well of 384-well assay plates (10 concentrations) in quidruplicate.
1 mL aliquots of 2×10^6 MT4 cells are pre-infected for 1 and 3 hours respectively at 37° C. with 25 μL (MT4) or of either cell growth medium (mock-infected) or a fresh 1:250 dilution of an HIV-IIIb concentrated ABI stock (0.004 m.o.i. for MT4 cells). Infected and uninfected cells are diluted in cell growth medium and 35 μL of 2000 (for MT4) cells is added to each well of the assay plates.
Assay plates were then incubated in a 37° C. incubator. After 5 days of incubation, 25 μL of 2× concentrated CellTiter-Glo™ Reagent (catalog # G7573, Promega Biosciences, Inc., Madison, Wis.) was added to each well of the assay plate. Cell lysis was carried out by incubating at room temperature for 2-3 minutes, and then chemiluminescence was read using the Envision reader (PerkinElmer).

[1] = MT4 cells infected with HIV-IIIb, 5 days, CellTiter-Glo, read-out: EC50 nM in MT-4
[2] = read-out: EC50 nM in MT-4, MT4 cells infected with HIV-IIIb, 5 days, CellTiter-Glo

SMILES: O=C(NCc1ccc(F)cc1F)c1cn2c(c(O)c1=O)C(=O)N1C(C2)[N@]2CCC[C@H]1C2 (stereo partly drawn) [Compound 19, (1R,5S)—N-(2,4-difluorobenzyl)-8-hydroxy-7,9-dioxo-2,3,4,5,7,9,13,13a-octahydro-1,5-methanopyrido[1′,2′:4,5]pyrazino[1,2-a][1,3]diazepine-10-carboxamide]
EC50 [1]: 2.8 nM

SMILES: O=C(NCc1ccc(F)cc1F)c1cn2c(c(O)c1=O)C(=O)N1C(C2)[N@@]2CCC[C@@H]1C2 (stereo partly drawn) [Compound 20, (1S,5R)—N-(2,4-difluorobenzyl)-8-hydroxy-7,9-dioxo-2,3,4,5,7,9,13,13a-octahydro-1,5-methanopyrido[1′,2′:4,5]pyrazino[1,2-a][1,3]diazepine-10-carboxamide]
EC50 [1]: 3.3 nM

SMILES: C[C@H](NC(=O)c1cn2c(c(O)c1=O)C(=O)N1[C@@H]3CC[C@@H](C3)O[C@H]1C2)c1ccc(F)cc1 [Compound 21, (2S,5R,13aS)—N—((S)-1-(4-fluorophenyl)ethyl)-8-hydroxy-7,9-dioxo-2,3,4,5,7,9,13,13a-octahydro-2,5-methanopyrido[1′,2′:4,5]pyrazino[2,1-b][1,3]oxazepine-10-carboxamide]
EC50 [1]: 38.3 nM

SMILES: C[C@H](NC(=O)c1cn2c(c(O)c1=O)C(=O)N1[C@H]3CC[C@H](C3)O[C@@H]1C2)c1ccc(F)cc1 [Compound 22, (2R,5S,13aR)—N—((S)-1-(4-fluorophenyl)ethyl)-8-hydroxy-7,9-dioxo-2,3,4,5,7,9,13,13a-octahydro-2,5-methanopyrido[1′,2′:4,5]pyrazino[2,1-b][1,3]oxazepine-10-carboxamide]
EC50 [1]: 64.3 nM

SMILES: O=C(NCc1ccccc1F)c1cn2c(c(O)c1=O)C(=O)N1[C@@H]3CC[C@@H](C3)O[C@H]1C2 [Compound 23, (2 S,5R,13aS)—N-(2-fluorobenzyl)-8-hydroxy-7,9-dioxo-2,3,4,5,7,9,13,13a-octahydro-2,5-methanopyrido[1′,2′:4,5]pyrazino[2,1-b][1,3]oxazepine-10-carboxamide]
EC50 [1]: 2.3 nM

SMILES: O=C(NCc1cc(F)cc(F)c1)c1cn2c(c(O)c1=O)C(=O)N1[C@@H]3CC[C@@H](C3)O[C@H]1C2 [Compound 24, (2 S,5R,13aS)—N-(3,5-difluorobenzyl)-8-hydroxy-7,9-dioxo-2,3,4,5,7,9,13,13a-octahydro-2,5-methanopyrido[1′,2′: 4,5]pyrazino[2,1-b][1,3]oxazepine-10-carboxamide]
EC50 [1]: 6.1 nM

SMILES: O=C(NCc1ccc(F)c(C(F)(F)F)c1)c1cn2c(c(O)c1=O)C(=O)N1[C@@H]3CC[C@@H](C3)O[C@H]1C2 [Compound 25, (2S,5R,13aS)—N-(4-fluoro-3-(trifluoromethyl)benzyl)-8-hydroxy-7,9-dioxo-2,3,4,5,7,9,13,13a-octahydro-2,5-methanopyrido[1′,2′:4,5]pyrazino[2,1-b][1,3]oxazepine-10-carboxamide]
EC50 [1]: 26.2 nM

SMILES: O=C(NCc1ccc(Cl)c(F)c1)c1cn2c(c(O)c1=O)C(=O)N1[C@@H]3CC[C@@H](C3)O[C@H]1C2 [Compound 26, (2 S,5R,13aS)—N-(4-chloro-3-fluorobenzyl)-8-hydroxy-7,9-dioxo-2,3,4,5,7,9,13,13a-octahydro-2,5-methanopyrido[1′,2′: 4,5]pyrazino[2,1-b][1,3]oxazepine-10-carboxamide]
EC50 [1]: 10.3 nM

SMILES: O=C(NC1(c2ccc(F)cc2F)CC1)c1cn2c(c(O)c1=O)C(=O)N1C(C2)O[C@H]2CC[C@@H]1C2 (stereo partly drawn) [Compound 27, (2 S,5R)—N-(1-(2,4-difluorophenyl)cyclopropyl)-8-hydroxy-7,9-dioxo-2,3,4,5,7,9,13,13a-octahydro-2,5-methanopyrido[1′,2′:4,5]pyrazino[2,1-b][1,3]oxazepine-10-carboxamide]
EC50 [1]: 4.4 nM

SMILES: O=C(NC1(c2ccc(F)cc2F)CC1)c1cn2c(c(O)c1=O)C(=O)N1C(C2)O[C@H]2CCC[C@@H]1C2 (stereo partly drawn) [Compound 28, (2 S,6R)—N-(1-(2,4-difluorophenyl)cyclopropyl)-9-hydroxy-8,10-dioxo-3,4,5,6,8,10,14,14a-octahydro-2H-2,6-methanopyrido[1′,2′:4,5]pyrazino[2,1-b][1,3]oxazocine-11-carboxamide]
EC50 [1]: 15.6 nM

SMILES: O=C(NC1(c2ccc(F)cc2F)CC1)c1cn2c(c(O)c1=O)C(=O)N1C(C2)O[C@@H]2CCC[C@H]1C2 (stereo partly drawn) [Compound 29, (2R,6S)—N-(1-(2,4-difluorophenyl)cyclopropyl)-9-hydroxy-8,10-dioxo-3,4,5,6,8,10,14,14a-octahydro-2H-2,6-methanopyrido[1′,2′:4,5]pyrazino[2,1-b][1,3]oxazocine-11-carboxamide]
EC50 [1]: 13.9 nM

SMILES: O=C(NC1(c2ccc(F)cc2F)CC1)c1cn2c(c(O)c1=O)C(=O)N1C(C2)O[C@@H]2CC[C@H]1C2 (stereo partly drawn) [Compound 31, (2R,5S)—N-(1-(2,4-difluorophenyl)cyclopropyl)-8-hydroxy-7,9-dioxo-2,3,4,5,7,9,13,13a-octahydro-2,5-methanopyrido[1′,2′:4,5]pyrazino[2,1-b][1,3]oxazepine-10-carboxamide]
EC50 [1]: 9 nM

SMILES: O=C(NC1(c2ccc(F)cc2F)CCC1)c1cn2c(c(O)c1=O)C(=O)N1C(C2)O[C@H]2CC[C@@H]1C2 (stereo partly drawn) [Compound 32, (2S,5R)—N-(1-(2,4-difluorophenyl)cyclobutyl)-8-hydroxy-7,9-dioxo-2,3,4,5,7,9,13,13a-octahydro-2,5-methanopyrido[1′,2′: 4,5]pyrazino[2,1-b][1,3]oxazepine-10-carboxamide]
EC50 [1]: 14 nM

SMILES: O=C(NC1(c2ccc(F)cc2F)CCCC1)c1cn2c(c(O)c1=O)C(=O)N1C(C2)O[C@H]2CC[C@@H]1C2 (stereo partly drawn) [Compound 33, (2S,5R)—N-(1-(2,4-difluorophenyl)cyclopentyl)-8-hydroxy-7,9-dioxo-2,3,4,5,7,9,13,13a-octahydro-2,5-methanopyrido[1%2′: 4,5]pyrazino[2,1-b][1,3]oxazepine-10-carboxamide]
EC50 [1]: 43.5 nM

SMILES: O=C(NC1(c2ccc(F)cc2F)CCCCC1)c1cn2c(c(O)c1=O)C(=O)N1C(C2)O[C@H]2CC[C@@H]1C2 (stereo partly drawn) [Compound 34, (2S,5R)—N-(1-(2,4-difluorophenyl)cyclohexyl)-8-hydroxy-7,9-dioxo-2,3,4,5,7,9,13,13a-octahydro-2,5-methanopyrido[1′,2′: 4,5]pyrazino[2,1-b][1,3]oxazepine-10-carboxamide]
EC50 [2]: 422 nM

SMILES: O=C(NC1(c2ccc(F)cc2F)CCOCC1)c1cn2c(c(O)c1=O)C(=O)N1C(C2)O[C@H]2CC[C@@H]1C2 (stereo partly drawn) [Compound 35, (2S,5R)—N-(4-(2,4-difluorophenyl)tetrahydro-2H-pyran-4-yl)-8-hydroxy-7,9-dioxo-2,3,4,5,7,9,13,13a-octahydro-2,5-methanopyrido[1′,2′:4,5]pyrazino[2,1-b][1,3]oxazepine-10-carboxamide]
EC50 [1]: 157 nM

SMILES: O=C(N[C@@H](c1ccc(F)cc1F)C(F)(F)F)c1cn2c(c(O)c1=O)C(=O)N1C(C2)O[C@H]2CC[C@@H]1C2 (stereo partly drawn) [Compound 36, (2S,5R)—N—((S)-1-(2,4-difluorophenyl)-2,2,2-trifluoroethyl)-8-hydroxy-7,9-dioxo-2,3,4,5,7,9,13,13a-octahydro-2,5-methanopyrido[1′,2′:4,5]pyrazino[2,1-b][1,3]oxazepine-10-carboxamide]
EC50 [1]: 7.6 nM

EC50 [1]: 10.2 nM
SMILES: C[C@H]1CO[C@@H]2Cn3cc(C(=O)NC4(c5ccc(F)cc5F)CC4)c(=O)c(O)c3C(=O)N12 [Compound 37, (3S,11aR)—N-(1-(2,4-difluorophenyl)cyclopropyl)-6-hydroxy-3-methyl-5,7-dioxo-2,3,5,7,11,11a-hexahydrooxazolo[3,2-a]pyrido[1,2-d]pyrazine-8-carboxamide]

SMILES: C[C@H]1C[C@@H]2C[C@H]1O[C@H]1Cn3cc(C(=O)NCc4ccc(F)cc4F)c(=O)c(O)c3C(=O)N21 [Compound 39, (2R,3S,5R,13aS)—N-(2,4-difluorobenzyl)-8-hydroxy-3-methyl-7,9-dioxo-2,3,4,5,7,9,13,13a-octahydro-2,5-methanopyrido[1′,2′:4,5]pyrazino[2,1-b][1,3]oxazepine-10-carboxamide]
EC50 [2]: 3.6 nM

SMILES: O=C(NCc1c(F)cc(F)cc1F)c1cn2c(c(O)c1=O)C(=O)N1[C@H]3CC[C@H](C3)[C@@H]1C2 [Compound 41, (1R,4S,12aR)-7-hydroxy-6,8-dioxo-N-(2,4,6-trifluorobenzyl)-1,2,3,4,6,8,12,12a-octahydro-1,4-methanodipyrido[1,2-a:1′,2′-d]pyrazine-9-carboxamide]
EC50 [1]: 2.1 nM

EC50 [1]: 2.5 nM
SMILES: O=C(NCc1c(F)cc(F)cc1F)c1cn2c(c(O)c1=O)C(=O)N1[C@H]3CC[C@H](C3)O[C@@H]1C2 [Compound 42, (2R,5S,13aR)-8-hydroxy-7,9-dioxo-N-(2,4,6-trifluorobenzyl)-2,3,4,5,7,9,13,13a-octahydro-2,5-methanopyrido[1′,2′:4,5]pyrazino[2,1-b][1,3]oxazepine-10-carboxamide]

SMILES: C[C@@H](NC(=O)c1cn2c(c(O)c1=O)C(=O)N1[C@H]3CC[C@H](C3)[C@@H]1C2)c1ccc(F)cc1F [Compound 43, (12aR)—N—((R)-1-(2,4-difluorophenyl)ethyl)-7-hydroxy-6,8-dioxo-1,2,3,4,6,8,12,12a-octahydro-1,4-methanodipyrido[1,2-a:1′,2′-d]pyrazine-9-carboxamide]
EC50 [1]: 6.9 nM
